The subject of the experiment is CEM cells HIV-1 protection, formazan growth assay. The experiment can be described thus: NCI AIDS Antiviral Assay. The note with it: for pIC50: measured here: growth of uninfected CEM cells. The method, boiled down:
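Soluble formazan readout of cell growth; CEM cells ± HIV-1; 5 drug concs. ≥50% protection → retest; ≥50% again = moderately active; reproducible 100% = confirmed active.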

Results on 69 compounds are retold here after PubChem BioAssay AID179 (DTP/NCI, 2004).

pEC50, pIC50: −log10 of the molar value. Activity calls are given as the source filed them.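 The calls were made as follows: active = compounds giving half or more protection of infected cells from virus-caused growth loss, again on retest; inactive = the rest.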 Bounds are passed on as bounds.

Usually pEC50 stands for −log10 of the EC50, conventionally taken in molar units. As usually defined, the pIC50 is the IC50 on a negative log10 scale, so that one unit is a factor of ten.

Consider `NC(CCOCCP(=O)(O)CCOCCC(N)C(=O)O)C(=O)O` (stereo not drawn), for which the pEC50 is < 3.70 and the pIC50 was < 3.70.

As to `NCCCN(CCCCN(CCCN)Cc1ccc2ccccc2c1)Cc1ccc2ccccc2c1`, the pEC50 was < 3.70 and the pIC50 is 5.97.

As to `O=C1C(Br)=C(C2=CC(=P(c3ccccc3)(c3ccccc3)c3ccccc3)C=C2)C(=O)C(Br)=C1C1=CC(=P(c2ccccc2)(c2ccccc2)c2ccccc2)C=C1`, the pEC50 was < 4.30 and the pIC50 is < 4.30.

Take `C=C1C(=O)O[C@H]2[C@H](OC(C)=O)[C@@H](C)CCC/C(C)=C/CC[C@@]3(C)O[C@@H]3C[C@@H]12`: the pEC50 is < 3.90 and the negative logarithm of the IC50 (pIC50) was 5.25.

As to `Fc1ccc(C2SCc3nc4ccccc4n32)c(F)c1` (stereo not drawn), the outcome was inactive.

`CC1(C)CC(=O)c2c(nc3c(ccc4ccccc43)c2-c2ccc(NC(=O)CCCCCCCCC(=O)Nc3ccc(-c4c5c(nc6c4ccc4ccccc46)CC(C)(C)CC5=O)cc3)cc2)C1`: the pEC50 was < 4.00 and the pIC50 was < 4.00.

Consider `S=C1NC(c2ccco2)N2C(=S)NC(c3ccco3)N12` (stereo not drawn), for which the outcome was inactive and the pIC50 was < 3.70.

In the case of `CCOC(=O)c1cc(-c2ccc(OC)c(OC)c2)cn1C`, the pEC50 is < 3.70 and the pIC50 is 4.40.

For the compound `NC(CSSCC(NC(=O)c1ccccc1)C(=O)O)C(=O)O` (stereo not drawn), the pEC50 was < 3.70 and the pIC50 is < 3.70.

In the case of `NC1CCCC2CCC(N)C12` (stereo not drawn), the pEC50 is < 3.70 and the pIC50 was 5.02.

As to `COc1ccccc1C1c2cc3c(cc2OC2(OC)COC(=O)C12)OCO3` (stereo not drawn), the pEC50 was < 3.70 and the pIC50 is 4.99.

On to `CC(C)CC(=O)NC(Nc1ccc(S(=O)(=O)Nc2ncccn2)cc1)(C(F)(F)F)C(F)(F)F`, for which the pEC50 was < 3.70 and the pIC50 was < 3.70.

Turning to `O=C(Nc1ccn(C2CC(O)C(COC(c3ccccc3)(c3ccccc3)c3ccccc3)O2)c(=O)n1)c1ccccc1` (stereo not drawn), the pEC50 is < 3.70 and the pIC50 was 5.13.

Consider `CN=S(=O)(c1ccccc1)c1ccccc1`, for which the pEC50 was 4.25 and the pIC50 was < 3.70.

For `CN(C)C(=S)/N=c1\ss/c(=N\C(=S)N(C)C)n1-c1ccccc1`, the pEC50 was < 3.70 and the pIC50 was 3.72.

Consider `CCCCCCC(c1cc(Cl)c(OC)c(C(=O)OC)c1)c1cc(Cl)c(OC)c(C(=O)OC)c1`, for which the pEC50 was < 4.44 and the pIC50 is < 4.44.

In the case of `Oc1ccc(-c2nc(-c3ccccc3)c(-c3ccccc3)[nH]2)cc1`, the pEC50 is < 3.70 and the pIC50 is 4.57.

Consider `NC(=O)c1c[se]c(C2OC(CO)C(O)C2O)n1` (stereo not drawn), for which the result was inactive.

With `CCCN1CC=C(c2cc(C(=O)OCC)[nH]c2-c2cc(C)no2)C1=O`, the pEC50 is < 3.70 and the pIC50 is 3.97.

Turning to `CCCC(C)(COC(N)=O)COC(=O)NC1CC1` (stereo not drawn), the pEC50 was < 3.70 and the pIC50 was < 3.70.

As to `O=C(O)CS(=O)(=O)O`, the pEC50 is < 3.70 and the pIC50 was < 3.70.

With `C#CCN(C)Cc1ccccc1`, the pEC50 is < 3.70 and the pIC50 was < 3.70.

`CC(=O)Nc1ccc(/C=N\N2C(=O)c3ccccc3C2=O)cc1`: the pEC50 is < 4.21 and the pIC50 was < 4.21.

As to `COc1ccc2cc1Oc1ccc(cc1)C[C@H]1c3cc(c(OC)cc3CCN1C)Oc1c(O)c(OC)cc3c1[C@H](C2)N(C)CC3`, the outcome was inactive.

With `C/C=C/C=N/N(C(=O)c1cc([N+](=O)[O-])cc([N+](=O)[O-])c1)C1=NC(c2ccccc2)C(c2ccccc2)=NN1` (stereo not drawn), the pEC50 is < 4.44 and the pIC50 is < 4.44.

Take `C=C1[C@H]2O[C@H]2[C@@H](OC(C)=O)[C@@]2(C)[C@@H](OC(C)=O)C[C@@H](OC(=O)CCC)[C@@](C)(O)[C@@H]2[C@@H](OC(C)=O)[C@]2(O)[C@@H](C)C(=O)O[C@H]2[C@H]1Cl`: the pEC50 was < 3.70 and the pIC50 was 3.76.

With `S=c1c2ccccc2c(=S)n2n1CC=CC2`, the result was inactive.

Turning to `NS(=O)(=O)c1ccc(NC(=S)/N=C/C2=C(O)c3ccccc3C2=O)cc1`, the pEC50 was < 3.70 and the pIC50 was 4.28.

Consider `CCOC(=O)c1c(C)[nH]c(C(=O)C(N=O)C(=O)OCC)c1C` (stereo not drawn), for which the pEC50 was < 3.70 and the pIC50 is < 3.70.

Consider `O=C1CC(c2ccc(Cl)cc2)NC(=O)N1CCN1CCCC1` (stereo not drawn), for which the pEC50 was < 3.70 and the pIC50 was < 3.70.

Regarding `CC[C@](C)(O)C(=O)O[C@H]1C(=O)O[C@@H]2C[C@H]3C(C)=CC(=O)[C@@H](O)[C@]3(C)[C@H]3[C@@]4(O)OC[C@]32[C@@H]1[C@@H](C)[C@H]4O`, the result was inactive.

Take `c1ccc(CSC(SCc2ccccc2)c2ccccc2)cc1`: the pEC50 is < 3.70 and the pIC50 is < 3.70.

With `COC(=O)[C@]1(C)CC[C@]2(C)CC[C@]3(C)C4CC[C@@]5(COC(C)=O)C(CCC(=O)[C@@H]5C)[C@]4(C)CCC3(C)[C@@H]2C1` (stereo partly drawn), the pEC50 is < 4.47 and the pIC50 was 4.80.

Consider `C#CC1NC(=O)C1N(CC)CC` (stereo not drawn), for which the outcome was inactive.

In the case of `CN(C)P(CCP(CCP(N(C)C)N(C)C)c1ccccc1)N(C)C`, the pEC50 is < 3.21 and the pIC50 was < 3.21.

On to `C[n+]1c(/C=C/c2ccc(/C=N/NC(=O)c3ccc(C(=O)N/N=C/c4ccc(/C=C/c5cn6ccccc6[n+]5C)cc4)cc3)cc2)cn2ccccc21`, for which the pEC50 was < 5.45 and the pIC50 was < 5.45.

As for `COC(=O)c1nc2[nH]n(-c3ccccc3)c(=O)c2c2c1CCCCCCCCCC2`, the pEC50 is < 3.91 and the negative logarithm of the IC50 (pIC50) is 3.94.

For the compound `CCCn1c2ccccc2c2ccc3c(c21)C(=O)C=CC3=O`, the pEC50 was < 3.70 and the pIC50 is 5.93.

Consider `COC(=O)C1=C(\c2ccccc2)c2ccccc2C(=O)N(C2CCCCC2)/C=C\1`, for which the pEC50 is < 3.70 and the pIC50 is 4.59.

`Nc1ccc(S(=O)Cc2ccc(C(=O)O)cc2[N+](=O)[O-])cc1` (stereo not drawn): the pEC50 is < 3.11 and the pIC50 is < 3.11.

In the case of `O=C1OC(c2ccccc2)=N/C1=C\c1ccccc1O`, the pEC50 is < 4.57 and the pIC50 was < 4.57.

Consider `COc1ccc(C2=CSC3=NC(C)(C)CC(C)=NN23)cc1`, for which the pEC50 is < 3.50 and the pIC50 is 3.77.

On to `CCC(C)C(=Nc1ccc(Cl)c(Cl)c1)N(C)C` (stereo not drawn), for which the outcome was inactive.

Turning to `COc1ccc2nc3ccc(OC)cc3c(S(=O)Cc3ccccc3)c2c1` (stereo not drawn), the pEC50 was < 3.70 and the pIC50 was 5.91.

Take `Cc1n[nH]c2ccc(Br)cc2c1=O`: the pEC50 was < 4.30 and the pIC50 is < 4.30.

Turning to `C=C1CC[C@@H](O)[C@]2(C)CC[C@@H](C(C)(C)O)[C@@H](OC3OC(CO)C(O)C(O)C3O)C12` (stereo partly drawn), the pEC50 is < 3.54 and the pIC50 was < 3.54.

As to `O=C1/C(=C/c2ccc([N+](=O)[O-])cc2)Oc2cc(O)ccc21`, the pEC50 is < 3.70 and the pIC50 was 4.45.

Turning to `CCN(CC)CP(CN(CC)CC)CN(CC)CC`, the pEC50 is < 3.70 and the negative logarithm of the IC50 (pIC50) is 3.90.

Consider `O=C(O)CCCC#CCCCC(=O)O`, for which the pEC50 was < 3.70 and the pIC50 is < 3.70.

For the compound `C=CC(=O)N1C/C(=C\c2ccc(Cl)c(Cl)c2)C(=O)/C(=C/c2ccc(Cl)c(Cl)c2)C1`, the pEC50 is < 5.23 and the pIC50 is 7.43.

Turning to `O=C(NN1C(=O)C(Cl)C1c1ccccc1O)c1ccccc1O` (stereo not drawn), the pEC50 was < 4.25 and the pIC50 is 5.08.

On to `Cc1ccc(S(=O)(=O)N/N=C\c2c3ccccc3[n+](C)c3ccccc23)cc1`, for which the outcome was inactive.

For the compound `CS(=O)(=O)OCC(CCl)(CCl)CCl`, the pEC50 is < 3.03 and the pIC50 is 3.18.

In the case of `CC(N)C(=O)NC(C)C(=O)NC(C)C(=O)NC(C)C(=O)NC(C)C(=O)NC(C)C(=O)O` (stereo not drawn), the pEC50 was < 4.00, the outcome was inactive and the pIC50 was < 4.00.

As to `COC1(OC)c2occc2C(=N)c2ccc(=O)oc21`, the pEC50 is < 3.70 and the pIC50 is 3.89.

In the case of `O=S1OC(c2ccccc2)(c2ccccc2)C(c2ccccc2)(c2ccccc2)O1`, the pEC50 was < 4.79 and the pIC50 is < 4.79.

On to `COC(=O)C1(C)CCc2c(OC)ccc(OC)c2C1=O` (stereo not drawn), for which the pEC50 was 3.92 and the pIC50 was 3.49.

Take `c1ccc2c(c1)N=C(c1cccc3ccccc13)CC(c1cccc3ccccc13)S2` (stereo not drawn): the pEC50 was < 5.60 and the pIC50 was < 5.60.

Consider `O=C(NNC(=O)c1ccccc1SSc1ccccc1C(=O)NNC(=O)c1ccccc1S)c1ccccc1S`, for which the pEC50 was 4.75 and the pIC50 is 4.48.

Take `O=C1C=CC(=O)c2c1ccc1c3ccccc3n(-c3cccc([N+](=O)[O-])c3)c21`: the pEC50 was < 4.00 and the negative-log IC50 (pIC50) was 5.32.

`CCOC(CN(C)C(=O)OCC(Cl)(Cl)Cl)OCC`: the pEC50 is < 4.65 and the pIC50 was < 4.65.

For `CN(C)C(=O)c1nc(CNC(=O)CN)n(-c2ccc(Cl)cc2C(=O)c2ccccc2)n1`, the pEC50 is < 3.70 and the pIC50 is < 3.70.

With `COCOc1ccc(Cn2c(=O)n(C)c(=O)c3c2ncn3C)cc1[N+](=O)[O-]`, the pEC50 was < 4.30 and the pIC50 is < 4.30.

In the case of `COCC1OC2(CCC[C@@H]2O)O[C@H]1COC` (stereo partly drawn), the result was inactive.

`CCC(C)(C)OC(=O)CC[C@@H](C)[C@H]1CC[C@H]2[C@@H]3CCC4CC(O)CC[C@]4(C)[C@H]3CC[C@]12C` (stereo partly drawn): the pEC50 is < 3.70 and the pIC50 was 4.56.

On to `Clc1ccc(Cl)c(-c2csc(-c3cccnc3)n2)c1`, for which the pEC50 was < 3.70 and the pIC50 is 4.44.

For the compound `N#CC12Cc3cc4c(cc3-c3cccc(c31)CCN2C(=O)c1ccccc1)OCO4` (stereo not drawn), the result was inactive.

Take `CCOC(=O)c1cccc(=O)c(C(=O)OCC)c1`: the result was inactive.

Regarding `N#Cc1c(=O)c2ccccc2n2ccccc12`, the pEC50 was < 4.00 and the pIC50 is < 4.00.
